Assay: FIH Study Part A dose escalation: adverse events
From the text: TEAEs and TRAEs from the clinical study database were coded to system organ class and preferred term using MedDRA version 22.0 and SAEs from the centralized safety database were coded using MedDRA version 25.0. The severity of adverse events was graded according to the NCI CTCAE version 5.0.

O=C1CC[C@H](N2Cc3cc(N4CCN(CC5CCN(c6ccc([C@@H]7c8ccc(O)cc8CC[C@@H]7c7ccccc7)cc6)CC5)CC4)ccc3C2=O)C(=O)N1 [Compound A, (S)-3-(5-(4-((1-(4-((1R,2S)-6-hydroxy-2-phenyl-1,2,3,4-tetrahydronaphthalen-1-yl)phenyl)piperidin-4-yl)methyl)piperazin-1-yl)-1-oxoisoindolin-2-yl)piperidine-2,6-dione]
TEAE Alanine aminotransferase increased (30 mg (N=3)): 0 n
TEAE Arthralgia (30 mg (N=3)): 0 n
TEAE Aspartate aminotransferase increased (30 mg (N=3)): 0 n
TEAE Back pain (30 mg (N=3)): 0 n
TEAE Constipation (30 mg (N=3)): 0 n
TEAE Decreased appetite (30 mg (N=3)): 0 n
TEAE Diarrhea (30 mg (N=3)): 0 n
TEAE Dizziness (30 mg (N=3)): 0 n
TEAE Fatigue (30 mg (N=3)): 0 n
TEAE Headache (30 mg (N=3)): 0 n
TEAE Hot flush (30 mg (N=3)): 1 n
TEAE Hyperglycemia (30 mg (N=3)): 0 n
TEAE Insomnia (30 mg (N=3)): 1 n
TEAE Nausea (30 mg (N=3)): 0 n
TEAE Pain in extremity (30 mg (N=3)): 0 n
TEAE Vomiting (30 mg (N=3)): 0 n
TRAE Arthralgia (30 mg (N=3)): 0 n
TRAE Constipation (30 mg (N=3)): 0 n
TRAE Decreased appetite (30 mg (N=3)): 0 n
TRAE Fatigue (30 mg (N=3)): 0 n
TRAE Hot flush (30 mg (N=3)): 0 n
TRAE Nausea (30 mg (N=3)): 0 n
TRAE Vomiting (30 mg (N=3)): 0 n
TEAE Alanine aminotransferase increased (60 mg (N=3)): 0 n
TEAE Arthralgia (60 mg (N=3)): 1 n
TEAE Aspartate aminotransferase increased (60 mg (N=3)): 0 n
TEAE Back pain (60 mg (N=3)): 0 n
TEAE Constipation (60 mg (N=3)): 1 n
TEAE Decreased appetite (60 mg (N=3)): 0 n
TEAE Diarrhea (60 mg (N=3)): 0 n
TEAE Dizziness (60 mg (N=3)): 1 n
TEAE Fatigue (60 mg (N=3)): 1 n
TEAE Headache (60 mg (N=3)): 1 n
TEAE Hot flush (60 mg (N=3)): 0 n
TEAE Hyperglycemia (60 mg (N=3)): 0 n
TEAE Insomnia (60 mg (N=3)): 0 n
TEAE Nausea (60 mg (N=3)): 2 n
TEAE Pain in extremity (60 mg (N=3)): 1 n
TEAE Vomiting (60 mg (N=3)): 0 n
TRAE Arthralgia (60 mg (N=3)): 1 n
TRAE Constipation (60 mg (N=3)): 0 n
TRAE Decreased appetite (60 mg (N=3)): 0 n
TRAE Fatigue (60 mg (N=3)): 1 n
TRAE Hot flush (60 mg (N=3)): 0 n
TRAE Nausea (60 mg (N=3)): 2 n
TRAE Vomiting (60 mg (N=3)): 0 n
TEAE Alanine aminotransferase increased (100 mg (N=9)): 0 n
TEAE Arthralgia (100 mg (N=9)): 2 n
TEAE Aspartate aminotransferase increased (100 mg (N=9)): 0 n
TEAE Back pain (100 mg (N=9)): 1 n
TEAE Constipation (100 mg (N=9)): 2 n
TEAE Decreased appetite (100 mg (N=9)): 2 n
TEAE Diarrhea (100 mg (N=9)): 4 n
TEAE Dizziness (100 mg (N=9)): 0 n
TEAE Fatigue (100 mg (N=9)): 2 n
TEAE Headache (100 mg (N=9)): 1 n
TEAE Hot flush (100 mg (N=9)): 1 n
TEAE Hyperglycemia (100 mg (N=9)): 0 n
TEAE Insomnia (100 mg (N=9)): 0 n
TEAE Nausea (100 mg (N=9)): 2 n
TEAE Pain in extremity (100 mg (N=9)): 0 n
TEAE Vomiting (100 mg (N=9)): 1 n
TRAE Arthralgia (100 mg (N=9)): 1 n
TRAE Constipation (100 mg (N=9)): 1 n
TRAE Decreased appetite (100 mg (N=9)): 2 n
TRAE Fatigue (100 mg (N=9)): 1 n
TRAE Hot flush (100 mg (N=9)): 1 n
TRAE Nausea (100 mg (N=9)): 1 n
TRAE Vomiting (100 mg (N=9)): 0 n
TEAE Alanine aminotransferase increased (120 mg (N=7)): 1 n
TEAE Arthralgia (120 mg (N=7)): 2 n
TEAE Aspartate aminotransferase increased (120 mg (N=7)): 3 n
TEAE Back pain (120 mg (N=7)): 1 n
TEAE Constipation (120 mg (N=7)): 2 n
TEAE Decreased appetite (120 mg (N=7)): 3 n
TEAE Diarrhea (120 mg (N=7)): 0 n
TEAE Dizziness (120 mg (N=7)): 1 n
TEAE Fatigue (120 mg (N=7)): 0 n
TEAE Headache (120 mg (N=7)): 2 n
TEAE Hot flush (120 mg (N=7)): 1 n
TEAE Hyperglycemia (120 mg (N=7)): 1 n
TEAE Insomnia (120 mg (N=7)): 1 n
TEAE Nausea (120 mg (N=7)): 2 n
TEAE Pain in extremity (120 mg (N=7)): 2 n
TEAE Vomiting (120 mg (N=7)): 2 n
TRAE Arthralgia (120 mg (N=7)): 2 n
TRAE Constipation (120 mg (N=7)): 1 n
TRAE Decreased appetite (120 mg (N=7)): 3 n
TRAE Fatigue (120 mg (N=7)): 0 n
TRAE Hot flush (120 mg (N=7)): 0 n
TRAE Nausea (120 mg (N=7)): 2 n
TRAE Vomiting (120 mg (N=7)): 2 n
TEAE Alanine aminotransferase increased (180 mg (N=7)): 2 n
TEAE Arthralgia (180 mg (N=7)): 2 n
TEAE Aspartate aminotransferase increased (180 mg (N=7)): 2 n
TEAE Back pain (180 mg (N=7)): 0 n
TEAE Constipation (180 mg (N=7)): 1 n
TEAE Decreased appetite (180 mg (N=7)): 0 n
TEAE Diarrhea (180 mg (N=7)): 0 n
TEAE Dizziness (180 mg (N=7)): 0 n
TEAE Fatigue (180 mg (N=7)): 2 n
TEAE Headache (180 mg (N=7)): 0 n
TEAE Hot flush (180 mg (N=7)): 0 n
TEAE Hyperglycemia (180 mg (N=7)): 0 n
TEAE Insomnia (180 mg (N=7)): 0 n
TEAE Nausea (180 mg (N=7)): 2 n
TEAE Pain in extremity (180 mg (N=7)): 1 n
TEAE Vomiting (180 mg (N=7)): 0 n
TRAE Arthralgia (180 mg (N=7)): 1 n
TRAE Constipation (180 mg (N=7)): 0 n
TRAE Decreased appetite (180 mg (N=7)): 0 n
TRAE Fatigue (180 mg (N=7)): 1 n
TRAE Hot flush (180 mg (N=7)): 0 n
TRAE Nausea (180 mg (N=7)): 2 n
TRAE Vomiting (180 mg (N=7)): 0 n
TEAE Alanine aminotransferase increased (200 mg (N=8)): 2 n
TEAE Arthralgia (200 mg (N=8)): 1 n
TEAE Aspartate aminotransferase increased (200 mg (N=8)): 3 n
TEAE Back pain (200 mg (N=8)): 1 n
TEAE Constipation (200 mg (N=8)): 2 n
TEAE Decreased appetite (200 mg (N=8)): 0 n
TEAE Diarrhea (200 mg (N=8)): 1 n
TEAE Dizziness (200 mg (N=8)): 0 n
TEAE Fatigue (200 mg (N=8)): 1 n
TEAE Headache (200 mg (N=8)): 1 n
TEAE Hot flush (200 mg (N=8)): 1 n
TEAE Hyperglycemia (200 mg (N=8)): 1 n
TEAE Insomnia (200 mg (N=8)): 1 n
TEAE Nausea (200 mg (N=8)): 3 n
TEAE Pain in extremity (200 mg (N=8)): 0 n
TEAE Vomiting (200 mg (N=8)): 1 n
TRAE Arthralgia (200 mg (N=8)): 1 n
TRAE Constipation (200 mg (N=8)): 2 n
TRAE Decreased appetite (200 mg (N=8)): 0 n
TRAE Fatigue (200 mg (N=8)): 0 n
TRAE Hot flush (200 mg (N=8)): 1 n
